The record followed here is patent publication US20250313574A1, “SIALIC ACID DERIVATIVES AND METHODS OF USING SAME” (EISAI R&D MANAGEMENT CO., LTD., priority 2022, published 2025).

For series [1] the following is noted: rcm bond, toluene.
Series [2] deals with Recombinant human CD33 protein (Homo sapiens (Human), UniProt P20138). Kind of series: CD33 competitive binding assay for HTS drug screen (fluorescent multivalent sialic acid probe). The procedure, abridged: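 Inhibition was read as reduced retention of a fluorescent multivalent sialic acid complex (final 5 μM neutravidin, 15 μM A-375, 5 μM biotin-4-FITC) on plate-immobilized human CD33. Compound was added first, the probe followed for 30 min at room temperature in PBS with 0.2% Tween-20 and 0.5% BSA, and FITC was measured after a wash.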
Sequence of Recombinant human CD33 protein (P20138 18-259): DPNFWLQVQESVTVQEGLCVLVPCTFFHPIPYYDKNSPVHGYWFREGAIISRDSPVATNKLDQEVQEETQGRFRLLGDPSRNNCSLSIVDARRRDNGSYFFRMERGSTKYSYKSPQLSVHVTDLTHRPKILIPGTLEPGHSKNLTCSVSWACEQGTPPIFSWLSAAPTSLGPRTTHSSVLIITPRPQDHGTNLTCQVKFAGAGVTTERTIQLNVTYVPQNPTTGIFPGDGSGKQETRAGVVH

Series [3] has as its target Recombinant Human Siglec-3/CD33 protein (His-CD33) (Homo sapiens (Human), UniProt P20138). Kind of series: Differential scanning fluorimetry (DSF) thermal shift assay. In kind it is binding.
Series [4] addresses recombinant human CD33 (Siglec-3, sialic acid binding Ig-like lectin 3) protein (Homo sapiens (Human), UniProt P20138). The experiment in a line: Differential Scanning Fluorimetry (DSF, Protein Thermal Shift Assay). The note with it: 50 μM of A-001; CD33 alone melts at approximately 55° C. As for the experimental part:
FIG. 1 depicts thermograms (A) and derivative curves (B) of His-CD33 (gray) and His-CD33 with A-001 (blue).
Differential Scanning Fluorimetry (also known as DSF, Protein Thermal Shift Assay, Thermofluor Assay) was used to measure and compare the thermal melt or thermal denaturation temperature of recombinant human CD33 (Siglec-3, sialic acid binding Ig-like lectin 3) protein in the presence of 50 μM of A-001. In the absence of any compound, the CD33 protein has a thermal melt at approximately 55° C. under the method conditions described in this report.

The mark [5] stands for this setting: thermal melt shift of 0.5 μM CD33 protein with 50 μM compound.
The mark [6] stands for this setting: difference in thermal melt of CD33 protein (0.5 μM) with 50 μM compound.

Where “and” joins values, the source holds several entries; their conditions need not be identical. Identical values can stand only once. Like-named read-outs stand apart in the source and are kept apart here.

Sequence of Recombinant Human Siglec-3/CD33 protein (His-CD33) (P20138 18-259): as above
Sequence of recombinant human CD33 (Siglec-3, sialic acid binding Ig-like lectin 3) protein (P20138 18-259): as above

On to `CC(=O)O[C@H]1[C@@H]2O[C@](C(=O)OCc3ccccc3)(CC=CCOC[C@@H](C)C(=O)NCCCOc3c(C)cc(cc3C)C(=O)NC[C@H]1OC(C)=O)C[C@H](OC(C)=O)[C@H]2NC(=O)OC(C)(C)C`, for which, in series [1] (from C=CCOC[C@@H](C)C(=O)NCCCOc1c(C)cc(C(=O)NC[C@@H](OC(C)=O)[C@@H](OC(C)=O)[C@@H]2O[C@@](CC=C)(C(=O)OCc3ccccc3)C[C@H](OC(C)=O)[C@H]2NC(=O)OC(C)(C)C)cc1C, 25-membered ring, Hoveyda-Grubbs II (10 mol%)/1,4-benzoquinone, 1.52 mM, 80.0 °C, 1.0 h), the ring closure, isolated yield worked out at 47%. In the case of `COC(=O)[C@]12CC=Cc3cccc(c3)[C@@H](NC(=O)C3CCCOC3)CCCCc3cc(cc(Cl)c3OC(C)=O)C(=O)NC[C@@H](OC(C)=O)[C@@H](OC(C)=O)[C@H](O1)[C@H](NC(=O)OC(C)(C)C)[C@@H](OC(C)=O)C2` (stereo partly drawn), the ring closure, isolated yield in series [1] (from C=CC[C@]1(C(=O)OC)C[C@H](OC(C)=O)[C@@H](NC(=O)OC(C)(C)C)[C@H]([C@H](OC(C)=O)[C@@H](CNC(=O)c2cc(Cl)c(OC(C)=O)c(CCCC[C@H](NC(=O)C3CCCOC3)c3cccc(C=C)c3)c2)OC(C)=O)O1, 22-membered ring, Hoveyda-Grubbs II/quinone, 1.3 mM, 88.0 °C, 0.5 h) was 57%; in series [1] (from C=CC[C@]1(C(=O)OC)C[C@H](OC(C)=O)[C@@H](NC(=O)OC(C)(C)C)[C@H]([C@H](OC(C)=O)[C@@H](CNC(=O)c2cc(Cl)c(OC(C)=O)c(CCCC[C@H](NC(=O)C3CCCOC3)c3cccc(C=C)c3)c2)OC(C)=O)O1, Hoveyda-Grubbs II/quinone, 1.3 mM, 88.0 °C, 0.5 h), 16%. `COC(=O)[C@]12CC=CCCC[C@@H](NC(=O)C3CCCOC3)c3cccc(c3)COc3c(C)cc(cc3C)C(=O)NC[C@@H](OC(C)=O)[C@@H](OC(C)=O)[C@H](O1)[C@H](NC(=O)OC(C)(C)C)[C@@H](OC(C)=O)C2` (stereo partly drawn): the ring closure, isolated yield in series [1] (from C=CCCC[C@@H](NC(=O)C1CCCOC1)c1cccc(COc2c(C)cc(C(=O)NC[C@@H](OC(C)=O)[C@@H](OC(C)=O)[C@@H]3O[C@@](CC=C)(C(=O)OC)C[C@H](OC(C)=O)[C@H]3NC(=O)OC(C)(C)C)cc2C)c1, 24-membered ring, Hoveyda-Grubbs II/quinone, 1.03 mM, 90.0 °C, 24.0 h) was determined as 71%.

In series [1] (from C=CCCCCC(=O)NCCCOc1c(C)cc(C(=O)NC[C@@H](OC(C)=O)[C@@H](OC(C)=O)[C@@H]2O[C@@](CC=C)(C(=O)OCc3ccccc3)C[C@H](OC(C)=O)[C@H]2NC(=O)OC(C)(C)C)cc1C, 25-membered ring, Hoveyda-Grubbs II, 2.15 mM, 90.0 °C, 0.58 h), `CC(=O)O[C@H]1[C@@H]2O[C@](C(=O)OCc3ccccc3)(CC=CCCCCC(=O)NCCCOc3c(C)cc(cc3C)C(=O)NC[C@H]1OC(C)=O)C[C@H](OC(C)=O)[C@H]2NC(=O)OC(C)(C)C` registered a ring closure, isolated yield of 41%. `COC(=O)[C@]12CC=Cc3cccc(c3)[C@@H](NC(=O)C3CCCOC3)CCCCOc3c(C)cc(cc3C)C(=O)NC[C@@H](OC(C)=O)[C@@H](OC(C)=O)[C@H](O1)[C@H](NC(=O)OC(C)(C)C)[C@@H](OC(C)=O)C2` (stereo partly drawn) registered a ring closure, isolated yield in series [1] (from C=CC[C@]1(C(=O)OC)C[C@H](OC(C)=O)[C@@H](NC(=O)OC(C)(C)C)[C@H]([C@H](OC(C)=O)[C@@H](CNC(=O)c2cc(C)c(OCCCC[C@H](NC(=O)C3CCCOC3)c3cccc(C=C)c3)c(C)c2)OC(C)=O)O1, 24-membered ring, Hoveyda-Grubbs II/quinone, 1.02 mM, 80.0 °C, 1.0 h) of 29%. Take `COC(=O)[C@]12CC=CCOC[C@@H](NC(=O)OC(C)(C)C)COCCCOc3c(C)cc(cc3C)C(=O)NC[C@@H](OC(C)=O)[C@@H](OC(C)=O)[C@H](O1)[C@H](NC(C)=O)[C@@H](OC(C)=O)C2`: the ring closure, isolated yield in series [1] (from C=CCOC[C@H](COCCCOc1c(C)cc(C(=O)NC[C@@H](OC(C)=O)[C@@H](OC(C)=O)[C@@H]2O[C@@](CC=C)(C(=O)OC)C[C@H](OC(C)=O)[C@H]2NC(C)=O)cc1C)NC(=O)OC(C)(C)C, 25-membered ring, Hoveyda-Grubbs II/quinone, 1.12 mM, 100.0 °C, 3.0 h) is 84%.

Regarding `COC(=O)[C@]12CC=CCOC[C@@H](NC(=O)C3CCCOC3)COCCOc3c(C)cc(cc3C)C(=O)NC[C@@H](OC(C)=O)[C@@H](OC(C)=O)[C@H](O1)[C@H](NC(=O)OC(C)(C)C)[C@@H](OC(C)=O)C2` (stereo partly drawn), in series [1] (from C=CCOC[C@H](COCCOc1c(C)cc(C(=O)NC[C@@H](OC(C)=O)[C@@H](OC(C)=O)[C@@H]2O[C@@](CC=C)(C(=O)OC)C[C@H](OC(C)=O)[C@H]2NC(=O)OC(C)(C)C)cc1C)NC(=O)C1CCCOC1, 24-membered ring, Hoveyda-Grubbs II/quinone, 1.05 mM, 80.0 °C, 3.0 h), the ring closure, isolated yield was determined as 60%. On to `CC(=O)N[C@H]1[C@H]([C@H](O)[C@H](O)CNC(=O)c2cc(C)c(O)c(C)c2)O[C@@](CCN2CCOC[C@@]23CCN(C(=O)OC(C)(C)C)C3)(C(=O)O)C[C@@H]1O` [A-001], for which the EC50 in series [2] came to 15 nM. Further, the “ΔTm D (° C.)” value in series [3] (50 μM compound, 0.5 μM CD33 protein, pH 7.4, individual determinations) is 11.9 °C and 12.9 °C. The ΔTm at 50 µM in series [3] (50 μM compound, 0.5 μM CD33 protein, pH 7.4, individual determinations, read-out: ΔTm D (° C.)) is 12.2 °C; in series [3] (50 μM compound, 0.5 μM CD33 protein, pH 7.4, read-out: Median ΔTm D (° C.)) it was 12.2 ± 0.7 °C. In addition, in series [3] (setting [5]), the “DSF (dTmD)” value was 12.9. Besides, in series [4], the “increase in thermal melt (dTm D) of CD33 protein” value stood at 12.2±0.7 °C. As for `COC(=O)[C@]12CC=CCOC[C@H]3C[C@H](CN3C(=O)C3CCCOC3)OCCOc3c(C)cc(cc3C)C(=O)NC[C@@H](OC(C)=O)[C@@H](OC(C)=O)[C@H](O1)[C@H](NC(=O)OC(C)(C)C)[C@@H](OC(C)=O)C2` (stereo partly drawn), the ring closure, isolated yield in series [1] (from C=CCOC[C@H]1C[C@@H](OCCOc2c(C)cc(C(=O)NC[C@@H](OC(C)=O)[C@@H](OC(C)=O)[C@@H]3O[C@@](CC=C)(C(=O)OC)C[C@H](OC(C)=O)[C@H]3NC(=O)OC(C)(C)C)cc2C)CN1C(=O)C1CCCOC1, 25-membered ring, Hoveyda-Grubbs II/quinone, 1.03 mM, 90.0 °C, 24.0 h) turned out to be 64%.

Consider `COC(=O)[C@]12CC=CCOC[C@@H](NC(=O)C3CCCOC3)COCCCOc3c(C)cc(cc3C)C(=O)NC[C@@H](OC(C)=O)[C@@H](OC(C)=O)[C@H](O1)[C@H](NC(=O)OC(C)(C)C)[C@@H](OC(C)=O)C2` (stereo partly drawn), for which, in series [1] (from C=CCOC[C@H](COCCCOc1c(C)cc(C(=O)NC[C@@H](OC(C)=O)[C@@H](OC(C)=O)[C@@H]2O[C@@](CC=C)(C(=O)OC)C[C@H](OC(C)=O)[C@H]2NC(=O)OC(C)(C)C)cc1C)NC(=O)C1CCCOC1, 25-membered ring, Hoveyda-Grubbs II/quinone, 1.04 mM, 90.0 °C, 24.0 h), the ring closure, isolated yield amounted to 76%. Take `CC(=O)N[C@H]1[C@H]([C@H](O)[C@H](O)CNC(=O)c2cc(Cl)c(F)c(Cl)c2)O[C@@](CCN2CCOC[C@@]23CCN(C(=O)OC(C)(C)C)C3)(C(=O)O)C[C@@H]1O` [A-159]: the EC50 in series [2] turned out to be 238 nM. Besides, the “DSF (dTmD)” value in series [3] (setting [5]) is reported as 11.4. The like results for `CC(=O)N[C@H]1[C@H]([C@H](O)[C@H](O)CNC(=O)c2ccc3c(c2)N(C)C(=O)CO3)O[C@@](CCN2CCOC[C@@]23CCN(C(=O)OC(C)(C)C)C3)(C(=O)O)C[C@@H]1O` [A-150] were, in that order, 219 nM and 9.6. As for `CC(=O)N[C@H]1[C@H]([C@H](O)[C@H](O)CNC(=O)c2cc(C)on2)O[C@@](CCN2CCOC[C@@]23CCN(C(=O)OC(C)(C)C)C3)(C(=O)O)C[C@@H]1O` [A-188], in series [2], the EC50 amounted to 2080 nM. In addition, the “DSF (dTmD)” value in series [3] (setting [5]) is listed as 4.5. The like results for `CC(=O)N[C@H]1[C@H]([C@H](O)[C@H](O)CNC(=O)c2cc(C)c3[nH]c(CO)cc3c2)O[C@@](CCN2CCOC[C@@]23CCN(C(=O)OC(C)(C)C)C3)(C(=O)O)C[C@@H]1O` [A-134] were, in that order, 14 nM and 15.8. For the molecule `CC(=O)N[C@H]1[C@H]([C@H](O)[C@H](O)CNC(=O)c2cc(C)c(O)c(C)c2)O[C@@](C/C=C/c2cccc(CNC(=O)c3cccc(NC(C)(C)C)c3)c2)(C(=O)O)C[C@@H]1O` [A-251], the concentration for a half-maximal effect (EC50) in series [2] stood at 9790 nM. The “DSF (dTmD)” value in series [3] (setting [6]) came to 4.3 °C. Consider `CC(=O)N[C@H]1[C@H]([C@H](O)[C@H](O)CNC(=O)c2cc(C)c(O)c(C)c2)O[C@@](CCN2CCCC[C@]23CN(C(=O)OC(C)(C)C)C[C@@H]3CO)(C(=O)O)C[C@@H]1O` [A-028], for which, in series [2], the EC50 amounted to 159 nM. Further, the “DSF (dTmD)” value in series [3] (setting [5]) is 8.1. In the case of `CC(=O)N[C@H]1[C@H]([C@H](O)[C@H](O)CNC(=O)c2cc(C)c(O)c(C)c2)O[C@@](C/C=C/c2cccc(CNC(=O)C3CCC[C@H](Nc4ncccn4)C3)c2)(C(=O)O)C[C@@H]1O` (stereo partly drawn) [A-256], the half-maximal effective concentration (EC50) in series [2] is 2170 nM. Moreover, in series [3] (setting [6]), the “DSF (dTmD)” value came to 5.1 °C.
